From patent EP4772514A1, “MACROCYCLIC COMPOUNDS, PREPARATION METHOD THEREFOR, AND USE THEREOF” (Genfleet Therapeutics (Shanghai) Inc., priority 2023, dated 2025) come the findings set out here.

Molecules are shown by their SMILES.

The IC50 is the concentration that gives 50% inhibition. Lower therefore signals greater potency.

The subject of this assay is p-ERK. As to the kind of experiment: Cell p-ERK assay (HTRF, Advance ERK phospho-T202/Y204 kit) in NCI-H441 cells. The settings on record: Homo sapiens, NCI-H441, 3 h, NCI-H441, human non-small cell lung cancer cell strain, KRAS G12V mutation; 3 h compound incubation. In kind it is cell-based. As for the experimental part: AsPC-1 cells were purchased from ATCC, Cat. No. CRL-1682; NCI-H441 cells were purchased from ATCC, Cat. No. HTB-174; RPMI-1640 medium was purchased from Gibco, Cat. No. 11875-093; FBS was purchased from Gibco, Cat. No. 10099-141C; penicillin/streptomycin double-antibiotic solution (PS) was purchased from Gibco, Cat. No. 15140-122; trypsin (containing EDTA) was purchased from Gibco, Cat. No. 25200-072; DMSO was purchased from VWRAMRESCO, Cat. No. 0231-500ML; 96-well cell culture plates were purchased from Corning, Cat. No. 3599; white-bottomed, opaque 96-well plates were purchased from Cisbio, Cat. No. 66PL96025; Advance ERK phospho-T202/Y204 kit was purchased from Cisbio, Cat. No. 64AERPEH; cell counter was purchased from CHEMOMETEC, model: NC-200; microplate reader was purchased from PerkinElmer, model: EnVision.
AsPC-1, a human pancreatic cancer cell strain endogenously containing a KRAS^G12D mutation, was cultured in a complete medium containing RPMI-1640 + 10% FBS + 1% PS. NCI-H441, a human non-small cell lung cancer cell strain endogenously containing a KRAS^G12V mutation, was cultured in a complete medium containing RPMI-1640 + 10% FBS + 1% PS.
The cells were digested with trypsin (containing EDTA), collected in their corresponding complete media, and counted. The density of the cell suspensions was adjusted with their corresponding complete media, and AsPC-1 cells (10000 cells/well) or NCI-H441 cells (20000 cells/well) were seeded into a 96-well cell culture plate, with the volume of the medium in each well being 80 µL. The cell culture plate was incubated in an incubator at 37 °C with 5% CO2 overnight. A series of 3.16-fold gradient dilutions of a 1000× compound stock solution were prepared with DMSO, and then diluted 200-fold with the complete medium described above to give 5× compound stock solutions. On the day after cell seeding, 20 µL of the 5× compound stock solution was added to each cell culture well. As a result, the final concentration of the compound in the cell culture well became 1×, and the DMSO content in the well was 0.1%. In addition to the compound-treated wells described above, cell-containing DMSO control wells were also set. A complete medium containing 0.5% DMSO was added at 20 µL/well. After the mixture was well mixed, the culture plate was incubated in the incubator at 37 °C with 5% CO2 for another 3 h. The medium was then removed from the culture wells, and 50 µL of cell lysis buffer (from Advance ERK phospho-T202/Y204 kit) was added to each well. The mixture was well mixed, incubated for 30 min, and then transferred to a white-bottomed, opaque 96-well assay plate at 16 µL/well, and separately, 16 µL of cell lysis buffer was added to additional wells (serving as blank wells) in the assay plate. After the transfer was completed, 4 µL of p-ERK HTRF antibody mixture (from Advance ERK phospho-T202/Y204 kit) was added to each well of the assay plate, followed by a 4-hour incubation. The HTRF signal values (RLU) were then measured using a microplate reader, and the inhibition rate of the compound against p-ERK levels was calculated as follows: IR(%) = (RLUDMSO - RLUcompound)/(RLUDMSO - RLUblank) × 100%, where RLUDMSO is the average HTRF signal value from the DMSO control well samples, RLU is the average HTRF signal value from the blank well samples, and RLUcompound is the HTRF signal value from the compound-treated well samples. Using an XLfit software, the IR(%) values were plotted against the logarithm of the compound concentrations, and the dose-response curves were fitted using the four-parameter method to calculate the IC50 values.
(In general: TR-FRET usually uses a lanthanide donor and a delayed reading to cut background.)
`CCn1nc2c(c1-c1cc(C#CCN3CCS(=O)(=O)CC3)cnc1[C@H](C)OC)CC(C)(C)COC(=O)[C@@H]1CCCN(N1)C(=O)[C@@H](NC(=O)[C@H](C(C)C)N(C)C1CCCC1)Cc1nc(cs1)/C=C/2` (atropisomer, axis not shown; (Ra)) [Compound Z58, (2S)-2-(cyclopentyl(methyl)amino)-N-((4^2Z,8^3S,2E,6S)-(Ra)-1^5-(5-(3-(1,1-dioxidothiomorpholine)prop-1-yn-1-yl)-2-((S)-1-methoxyethyl)pyridin-3-yl)-1^1-ethyl-12,12-dimethyl-7,9-dioxo-8^1,8^2,8^3,8^4,8^5,8^6-hexahydro-1^1H-10-oxa-4(4,2)-thiazola-8(1,3)-pyridazina-1(3,4)-pyrazolecyclotridec-2-en-6-yl)-3-methylbutanamide]: half-maximal inhibition (IC50) required 55.7 nM.
`CO[C@@H](C)c1ncc(C#CCN2CCS(=O)(=O)CC2)cc1-c1c2c(nn1C(C)C)/C=C/c1csc(n1)C[C@H](NC(=O)[C@H](C(C)C)N(C)c1cccc(C)c1)C(=O)N1CCC[C@H](N1)C(=O)OCC(C)(C)C2` (atropisomer, axis not shown; (Ra)) [Compound Z59, (2S)-N-((4^2Z,8^3S,2E,6S)-1^5-(Ra)-(5-(3-(1,1-dioxidothiomorpholino)prop-1-yn-1-y1)-2-((S)-1-methoxyethyl)pyridin-3-yl)-1^1-isopropyl-12,12-dimethyl-7,9-dioxo-8^1,8^2,8^3,8^4,8^5,8^6-hexahydro-1^1H-10-oxa-4(4,2)-thiazola-8(1,3)-pyridazina-1(3,4)-pyrazolocyclotridec-2-en-6-yl)-3-methyl-2-(methyl(m-tolyl)amino)butanamide] gave an IC50 of 49.2 nM.
With `CO[C@@H](C)c1ncc(C#CCN2CCS(=O)(=O)CC2)cc1-c1c2c(nn1C(C)C)/C=C/c1csc(n1)C[C@H](NC(=O)[C@H](C(C)C)N(C)c1ccc3ccccc3c1)C(=O)N1CCC[C@H](N1)C(=O)OCC(C)(C)C2` (atropisomer, axis not shown; (Ra)) [Compound Z60] the figure was 261 nM; with `CO[C@@H](C)c1ncc(C#CCN2CCS(=O)(=O)CC2)cc1-c1c2c(nn1C(C)C)/C=C/c1csc(n1)C[C@H](NC(=O)[C@H](C(C)C)N(C)c1ccc(C)cc1)C(=O)N1CCC[C@H](N1)C(=O)OCC(C)(C)C2` (atropisomer, axis not shown; (Ra)) [Compound Z61, (2S)-N-((4^2Z,8^3S,2E,6S)-1^5-(Ra)-(5-(3-(1,1-dioxidothiomorpholino)prop-1-yn-1-yl)-2-((S)-1-methoxyethyl)pyridin-3-yl)-1^1-isopropyl-12,12-dimethyl-7,9-dioxo-8^1,8^2,8^3,8^4,8^5,8^6-hexahydro-1^1H-10-oxa-4(4,2)-thiazola-8(1,3)-pyridazina-1(3,4)-pyrazolocyclotridec-2-en-6-yl)-3-methyl-2-(methyl(p-tolyl)amino)butanamide], 69.9 nM; with `CCn1nc2c(c1-c1cc(C#CCN3CCS(=O)(=O)CC3)cnc1[C@H](C)OC)CC(C)(C)COC(=O)[C@@H]1CCCN(N1)C(=O)[C@@H](NC(=O)[C@H](C(C)C)N(C)c1ccncc1)Cc1nc(cs1)/C=C/2` (atropisomer, axis not shown; (Ra)) [Compound Z122, (2S)-N-((4^2Z,8^3S,2E,6S)-(Ra)-1^5-(5-(3-(1,1-dioxidothiomorpholino)prop-1-yn-1-yl)-2-((S)-1-methoxyethyl)pyridin-3-yl)-1^1-ethyl-12,12-dimethyl-7,9-dioxo-8^1,8^2,8^3,8^4,8^5,8^6-hexahydro-1^1H-10-oxa-4(4,2)-thiazola-8(1,3)-pyridazina-1(3,4)-pyrazolocyclotridec-2-en-6-yl)-3-methyl-2-(methyl(pyridin-4-yl)amino)butanamide], 181 nM.
In turn, `CCn1nc2c(c1-c1cc(C#CCN3CCS(=O)(=O)CC3)cnc1[C@H](C)OC)CC(C)(C)COC(=O)[C@@H]1CCCN(N1)C(=O)[C@@H](NC(=O)[C@H](C(C)C)N(C)c1cccnc1)Cc1nc(cs1)/C=C/2` (atropisomer, axis not shown; (Ra)) [Compound Z123, (2S)-N-((4^2Z,8^3S,2E,6S)-(Ra)-1^5-(5-(3-(1,1-dioxidothiomorpholino)prop-1-yn-1-yl)-2-((S)-1-methoxyethyl)pyridin-3-yl)-1^1-ethyl-12,12-dimethyl-7,9-dioxo-8^1,8^2,8^3,8^4,8^5,8^6-hexahydro-1^1H-10-oxa-4(4,2)-thiazola-8(1,3)-pyridazina-1(3,4)-pyrazolocyclotridec-2-en-6-yl)-3-methyl-2-(methyl(pyridin-3-yl)amino)butanamide] came in with a half-maximal inhibitory concentration (IC50) of 4.63 nM.
To `CCn1nc2c(c1-c1cc(C#CCN3CCS(=O)(=O)CC3)cnc1[C@H](C)OC)CC(C)(C)COC(=O)[C@@H]1CCCN(N1)C(=O)[C@@H](NC(=O)[C@H](C(C)C)N(C)c1ccc(F)cc1)Cc1nc(cs1)/C=C/2` (atropisomer, axis not shown; (Ra)) [Compound Z124, (2S)-N-((4^2Z,8^3S,2E,6S)-(Ra)-1^5-(5-(3-(1,1-dioxidomorpholinyl)prop-1-yn-1-yl)-2-((S)-1-methoxyethyl)pyridin-3-yl)-1^1-ethyl-12,12-dimethyl-7,9-dioxo-8^1,8^2,8^4,8^5,8^6-hexahydro-1^1H-10-oxa-4(4,2)-thiazola-8(1,3)-pyridazina-1(3,4)-pyrrolacyclotridecaphan-2-en-6-yl)-2-[(4-fluorophenyl)(methyl)amino]-3-methylbutanamide] belongs 2.05 nM.
In the case of `CCn1nc2c(c1-c1cc(C#CCN3CCS(=O)(=O)CC3)cnc1[C@H](C)OC)CC(C)(C)COC(=O)[C@@H]1CCCN(N1)C(=O)[C@@H](NC(=O)[C@@H](Cc1ccccc1)C(C)C)Cc1nc(cs1)/C=C/2` (atropisomer, axis not shown; (Ra)) [Compound Z127, (2S)-2-benzyl-N-((4^2Z,8^3S,2E,6S)-(Ra)-1^5-(5-(3-(1,1-dioxidothiomorpholino)prop-1-yn-1-yl)-2-((S)-1-methoxyethyl)pyridin-3-yl)-1^1-ethyl-12,12-dimethyl-7,9-dioxo-8^1,8^2,8^3,8^4,8^5,8^6-hexahydro-1^1H-10-oxa-4(4,2)-thiazola-8(1,3)-pyridazina-1(3,4)-pyrrolacyclotridecaphan-2-en-6-yl)-3-methylbutanamide], the IC50 came out at 104 nM.
To `CO[C@@H](C)c1ncc(C#CCN2CCS(=O)(=O)CC2)cc1-c1c2c(nn1C(C)C)/C=C/c1csc(n1)C[C@H](NC(=O)[C@H](C(C)C)N(C)C(=O)Cc1cccc3ccsc13)C(=O)N1CCC[C@H](N1)C(=O)OCC(C)(C)C2` (single isomer, unassigned) [Compound Z120] belongs 513 nM; to `COC[C@H]1CCN1C(=O)N[C@H]1Cc2nc(cs2)/C=C/c2nn(C(C)C)c(-c3cc(C#CCN4CCS(=O)(=O)CC4)cnc3[C@H](C)OC)c2CC(C)(C)COC(=O)[C@@H]2CCCN(N2)C1=O` [Compound Z41, (2R)-N-((4^2Z,8^3S,2E,6S)-1^5-(5-(3-(1,1-dioxidothiomorpholino)prop-1-yn-1-yl)-2-((S)-1-methoxyethyl)pyridin-3-yl)-1^1-isopropyl-12,12-dimethyl-7,9-dioxo-8^1,8^2,8^3,8^4,8^5,,8^6-hexahydro-1^1H-10-oxa-4(4,2)-thiazola-8(1,3)-pyridazina-1(3,4)-pyrrolacyclotridecaphan-2-en-6-yl)-2-(methoxymethyl)azetidine-1-carboxamide], 356 nM.
